Experimental data from patent US9334256B2, “Agents and methods for treating ischemic and other diseases” (NoNO INC., priority 2011, dated 2016).

Experiments:
TRPM7 ion channel = biological target: T1, TRPM7 ion channel (Mus musculus, UniProt Q923J1); assay: Whole-cell patch clamp of TRPM7 currents in HEK293 cells; assay type: cell-based; settings: value shown = concentration at which the compound significantly inhibits the ion channel
T1 construct: expressed in transfected cells; host or cells: TRPM7-tet-on HEK293 cells
T1 sequence (Q923J1 whole entry): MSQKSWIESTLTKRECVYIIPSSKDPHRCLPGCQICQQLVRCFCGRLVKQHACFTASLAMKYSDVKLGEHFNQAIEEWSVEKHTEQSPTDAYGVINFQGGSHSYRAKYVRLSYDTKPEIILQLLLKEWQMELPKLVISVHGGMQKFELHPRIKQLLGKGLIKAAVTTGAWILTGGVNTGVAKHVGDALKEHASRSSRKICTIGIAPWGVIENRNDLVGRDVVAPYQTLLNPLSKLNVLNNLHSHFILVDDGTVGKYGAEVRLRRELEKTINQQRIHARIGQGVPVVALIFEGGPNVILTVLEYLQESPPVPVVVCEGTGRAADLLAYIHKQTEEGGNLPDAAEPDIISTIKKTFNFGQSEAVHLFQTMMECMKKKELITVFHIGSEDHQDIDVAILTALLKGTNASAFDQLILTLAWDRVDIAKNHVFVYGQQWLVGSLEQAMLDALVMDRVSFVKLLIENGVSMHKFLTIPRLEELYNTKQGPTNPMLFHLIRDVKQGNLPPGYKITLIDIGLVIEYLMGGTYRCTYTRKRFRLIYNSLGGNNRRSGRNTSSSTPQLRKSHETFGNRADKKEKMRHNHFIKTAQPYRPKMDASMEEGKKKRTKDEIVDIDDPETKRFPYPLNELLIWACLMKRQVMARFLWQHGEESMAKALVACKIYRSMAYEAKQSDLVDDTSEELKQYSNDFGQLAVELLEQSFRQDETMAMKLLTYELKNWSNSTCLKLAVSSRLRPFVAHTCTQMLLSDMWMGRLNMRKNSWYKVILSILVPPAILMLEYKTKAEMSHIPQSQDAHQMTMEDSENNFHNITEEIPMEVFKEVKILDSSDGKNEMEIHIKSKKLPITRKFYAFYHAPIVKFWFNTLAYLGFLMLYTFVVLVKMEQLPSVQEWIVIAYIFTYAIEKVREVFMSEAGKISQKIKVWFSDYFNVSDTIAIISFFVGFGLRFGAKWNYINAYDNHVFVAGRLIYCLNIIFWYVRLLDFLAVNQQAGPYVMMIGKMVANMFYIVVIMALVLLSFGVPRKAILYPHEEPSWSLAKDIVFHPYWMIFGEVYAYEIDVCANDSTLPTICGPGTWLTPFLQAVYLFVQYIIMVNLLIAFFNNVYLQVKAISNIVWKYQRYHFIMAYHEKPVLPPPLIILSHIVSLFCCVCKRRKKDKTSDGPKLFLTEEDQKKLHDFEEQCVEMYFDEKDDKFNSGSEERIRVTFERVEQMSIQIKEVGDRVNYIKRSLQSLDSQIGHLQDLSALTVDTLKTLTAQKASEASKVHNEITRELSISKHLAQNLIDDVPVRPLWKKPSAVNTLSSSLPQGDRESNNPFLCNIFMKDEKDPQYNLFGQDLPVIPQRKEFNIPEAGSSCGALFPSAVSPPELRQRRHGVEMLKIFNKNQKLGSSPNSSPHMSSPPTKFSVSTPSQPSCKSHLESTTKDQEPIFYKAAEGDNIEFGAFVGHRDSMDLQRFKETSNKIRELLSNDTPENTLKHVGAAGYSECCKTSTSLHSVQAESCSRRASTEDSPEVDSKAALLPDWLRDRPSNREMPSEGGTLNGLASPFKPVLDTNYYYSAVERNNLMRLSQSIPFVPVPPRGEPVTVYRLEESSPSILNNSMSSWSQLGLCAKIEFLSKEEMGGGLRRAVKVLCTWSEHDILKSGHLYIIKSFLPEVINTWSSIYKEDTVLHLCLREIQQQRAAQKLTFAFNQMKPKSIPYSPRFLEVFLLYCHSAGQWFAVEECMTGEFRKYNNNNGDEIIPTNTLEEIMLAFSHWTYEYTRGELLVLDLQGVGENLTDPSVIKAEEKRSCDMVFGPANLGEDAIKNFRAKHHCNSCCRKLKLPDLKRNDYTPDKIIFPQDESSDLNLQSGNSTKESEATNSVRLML
Protocol: To further understand the structure function relationships between the TRPM7 inhibitors identified in the TRPM7-dependent HEK death assay, the activity of a subset of these inhibitors described herein were tested for their ability to inhibit TRPM7 currents in cell systems. Whole-cell patch clamp recordings were used essentially as described to test the TRPM7 inhibitors in HEK293 cells, H9c2 cardiomyocytes and cultured neurons. […] Those that provide >10% inhibition of TRPM7 channel activity in the HEK293 cell system were labeled with the concentration tested (generally 5 uM). Thus, the compounds in this table marked with such a value are able to block the activity gof the TRPM7 ion channel. FIGS. 2A-C provide an example of this for the TRPM7 inhibitor 399 (Structure 9). […] Numbers in brackets indicate the number of independent tests, and the bars represent the SEM.
Whole-cell currents were recorded using an Axopatch 1D or MultiClamp 700B amplifier and were digitized at 10 kHz and low-pass filtered at 2 kHz, at room temperature. pClamp10 software was used for data acquisition and analysis. Patch electrodes were pulled from Borosilicate glass and fire polished to a resistance of 2-4 MΩ. All drugs were administrated directly to cell bodies under recording through the fast exchange perfusion system.
The intracellular solution (ICS) contains (mM) 145 Cs-methanesulfonate, 8 NaCl, l MgCl2, 4.1 CaCl2, 10 EGTA, and 10 HEPES, 5 ATP, pH at 7.4, with 300-305 mOsm. The extracellular solution (ECS) contains (mM) 140 NaCl, 5 KCl, 2 CaCl2, 20 HEPES, and 10 glucose, pH at 7.4 and with 315-320 mOsm.
Voltage stimuli lasting 250 ms were delivered at 5-s intervals with voltage ramps ranging from −100 to +100 mV. The current values at −80 mV and +80 mV on I-V curve represent the measures of inward and outward current respectively.
(§1) Table X and FIGS. 7-51 show screening data for several additional compounds that are variants of M5, M6 or M21. The synthesis of compounds of Table X and FIGS. 7-51 is shown in Appendices A-C. The compounds shown in FIGS. 7-51 can be related to the appropriate row of Table X by the compound number shown in the figures and in the first column of Table X. The compounds in Table X other than M5, M6 and M21 themselves, are believed to be novel. The Table provides a number identifying the compound, its structurer, molecular weight and its cluster (i.e., whether the compound resembles M5, M6 or M21). The three columns relations to PI uptake describe the results of screening the compounds in the type of assay from Example 1. […] The last two columns show an effect on proliferation of Weri retinoblastoma or HeLa cervical cancer cells. Inhibition of proliferation is a measure of anti-neoplastic activity. […] If no data is shown, no test was performed.

TRPM7 [1] = biological target: T2, TRPM7 (Mus musculus, UniProt Q923J1); assay: PI uptake cell death assay in TRPM7-expressing HEK-293 cells (type of assay from Example 1); assay type: cell-based, murine
T2 construct: expressed in transfected cells; host or cells: HEK-293 tSA (HEK-293T) cells, transient transfection with Lipofectamine 2000
T2 sequence (Q923J1 whole entry): as above
Source text: The TRPM7 channel provides a pathway for mono- and divalent cations into the cell, and is unique in that it contains a functional C-terminal α-kinase domain. […] The induction of chemical anoxia in host cells such as recombinant HEK293 cells can be used to activate TRPM7. This activation is detectable with the use measurements of cellular calcium accumulation. This is achievable with the use of a fluorescent calcium indicator. Alternatively, this activation can also be measured using radiolabelled Ca2+ (^45Ca^2+) as described previously by Sattler et al. (Sattler et al., 1998) and Aarts et al. (Aarts et al., 2003).
Hoechst 33342 was purchased as a 10 mg/mL solution in water (Molecular Probes Inc., Eugene, Oreg.). Propidium iodide (PI) was purchased as a powder and prepared by dissolving in PBS at 1 mg/mL. PI solutions were stored at 4° C. until use. Hoechst and PI were added directly to cell culture to 5 μg/mL and 10 μg/mL respectively. Cells were incubated at room temperature or at 37° C. for 10 minutes to allow for adequate uptake, and fluorescence observed using a NIKON Eclipse TE2000 inverted microscope and TE-FM Epi-Fluorescence attachment (Nikon Canada).
Untransfected cells or cells transfected with the TRPM7/pTracer or ΔPDZ/pTracer construct were plated onto 24-well plates, 24-hours post-transfection. Untransfected cells were plated at 0.75×10^6 cells/well and transfected cells at 1×10^6 cells/well. The plates were coated with poly-D-lysine to strengthen cell adhesion and to minimize cell loss during washes. Cells were loaded by incubation with 5 μM fluo-3 AM and 0.02% pluronic in HBSS at 37° C. for 30 minutes. Following loading, cells were washed with an aglycaemic HBSS containing, in mM: 20 N-methyl-D-glucamine (NMDG), 121 NaCl, 5 KCl, 10 HEPES acid, 10 HEPES-Na salt, 3 NaHCO3, 1 Na-pyruvate, and 1.8 CaCl2, pH adjusted to 7.4 with HCl. Calcium uptake, as assessed by fluo-3 fluorescence, was measured in response to 0, 5, 10, 15, 20, or 25 mM sodium cyanide (NaCN; Mallinckrodt Baker Inc., Phillipsburg, N.J.) dissolved in aglycaemic HBSS. A 250 mM NaCN stock was prepared in water and stored at room temperature for up to 2 weeks. Measurements of fluo-3 fluorescence were taken over a 2 hour period at 10 minutes intervals at room temperature (22-25° C.). Calcium uptake assays were performed 48 hours post-transfection.
Cell death, as assessed by PI uptake, was examined at the end of the 2 hour calcium uptake assay. Cells were stained with 10 μg/mL PI and PI fluorescence measured using the Fluoroskan microplate reader (λ excitation=590 nm, λ emission=630 nm) and accompanying Ascent software (Thermo Electron Corp.). To obtain a reading of maximal fluorescence (Fmax), 0.5% Triton X-100 was added to each well and allowed to incubate for 20 minutes. Cell death assays were performed 48 hours post-transfection.
Data was entered into Excel (Microsoft, Seattle, Wash.) or SigmaPlot (SPSS Inc., Chicago, Ill.) for analysis. Pooled data are presented as the mean of at least 3 separate experiments±sem. Calcium uptake is expressed as a fraction of baseline uptake: ΔFt=(Ft−Fo)/Fo where Ft is the fluorescence at time t, and Fo is the fluorescence at baseline. Cell death is expressed as a percentage of total cell death: cell death (%)=Ft/Fmax×100 where Ft is the fluorescence at time t and Fmax is the maximal fluorescence obtained by permeabilization with Triton X-100. Concentration-response curves were fit by nonlinear regression with a 4 parameter logistic curve represented by the following equation: y=min+{(max−min)/[1+(x/EC50)n]} where y is the response at concentration x, min is the minimal response, max is the maximal response, EC50 is the concentration required for half-maximal response, and n is the Hill slope. Statistical analysis of data was carried out with a two-tailed Student's t test, or a one-way analysis of variance (ANOVA) followed by post hoc pairwise multiple comparisons testing using the Holm-Sidak method, where appropriate. […]

[2] = test system: neurons, hepatocytes, cardiomyocytes, retina; assay: Survival after anoxia in cells and tissues; assay type: cell-based; settings: summary statement
cancer cell lines = assay: Cell proliferation studies, cancer cell lines in general; assay type: cell-based; settings: summary statement
Protocol: (§2) Cells were grown to 70% confluency, trypsinized, counted, and seeded in 96-well flat-bottom plates at a final concentration of 2.5×10^3-5.0×10^3 cells/well in growth media containing 5% FBS (Day 0). Other well sizes and cell densities were used successfully as well. Cells were allowed to incubate in growth media for 24 hours to allow for maximum adhesion. Treatment with the test agent began on Day 1 and continued for 72 hours either with or without retreatment. At the 72 hour time point, viable cell numbers are quantified by the CellTiter-Glo® cell viability assay as described above, or using standard MTT, SRB or BrDU assays. Experiments were repeated at least twice with the same concentrations to determine growth inhibitory activity. […] In an alternative format, this assay was used to screen potential TRPM7 inhibitory compounds at a fixed concentration, usually 5 or 10 uM. Alternatively, lower or higher concentrations were used. […] Thus, for the compounds in Table 1, all are potential anti-cancer agents. Some, like 399 and 509, are more general and may be effective against a wide range of cancers. Others, like 2785, are more specific and may be effective against a subset of cancers.
(§3) Data Collection—For the cell proliferation studies, data from each experiment was collected and expressed as % Cell Growth using the following calculation: % Cell Growth=(ftest/fvehicle)×100 Where ftest is the luminescent signal of the tested sample, and fvehicle is the luminescence of the vehicle in which the drug is dissolved (or appropriate measure for the other viability/proliferation measures). Dose response graphs and IC50 values were generated using standard software using the following variable slope equation: […]

TRPM7 [3] = biological target: TRPM7 (Homo sapiens, UniProt Q96QT4); settings: Nadler et al., Jiang et al.; read-out: IC50 for inhibition of TRPM7; cited from earlier work
Chain of TRPM7 (Homo sapiens, UniProt Q96QT4) (Q96QT4 whole entry, species assumed): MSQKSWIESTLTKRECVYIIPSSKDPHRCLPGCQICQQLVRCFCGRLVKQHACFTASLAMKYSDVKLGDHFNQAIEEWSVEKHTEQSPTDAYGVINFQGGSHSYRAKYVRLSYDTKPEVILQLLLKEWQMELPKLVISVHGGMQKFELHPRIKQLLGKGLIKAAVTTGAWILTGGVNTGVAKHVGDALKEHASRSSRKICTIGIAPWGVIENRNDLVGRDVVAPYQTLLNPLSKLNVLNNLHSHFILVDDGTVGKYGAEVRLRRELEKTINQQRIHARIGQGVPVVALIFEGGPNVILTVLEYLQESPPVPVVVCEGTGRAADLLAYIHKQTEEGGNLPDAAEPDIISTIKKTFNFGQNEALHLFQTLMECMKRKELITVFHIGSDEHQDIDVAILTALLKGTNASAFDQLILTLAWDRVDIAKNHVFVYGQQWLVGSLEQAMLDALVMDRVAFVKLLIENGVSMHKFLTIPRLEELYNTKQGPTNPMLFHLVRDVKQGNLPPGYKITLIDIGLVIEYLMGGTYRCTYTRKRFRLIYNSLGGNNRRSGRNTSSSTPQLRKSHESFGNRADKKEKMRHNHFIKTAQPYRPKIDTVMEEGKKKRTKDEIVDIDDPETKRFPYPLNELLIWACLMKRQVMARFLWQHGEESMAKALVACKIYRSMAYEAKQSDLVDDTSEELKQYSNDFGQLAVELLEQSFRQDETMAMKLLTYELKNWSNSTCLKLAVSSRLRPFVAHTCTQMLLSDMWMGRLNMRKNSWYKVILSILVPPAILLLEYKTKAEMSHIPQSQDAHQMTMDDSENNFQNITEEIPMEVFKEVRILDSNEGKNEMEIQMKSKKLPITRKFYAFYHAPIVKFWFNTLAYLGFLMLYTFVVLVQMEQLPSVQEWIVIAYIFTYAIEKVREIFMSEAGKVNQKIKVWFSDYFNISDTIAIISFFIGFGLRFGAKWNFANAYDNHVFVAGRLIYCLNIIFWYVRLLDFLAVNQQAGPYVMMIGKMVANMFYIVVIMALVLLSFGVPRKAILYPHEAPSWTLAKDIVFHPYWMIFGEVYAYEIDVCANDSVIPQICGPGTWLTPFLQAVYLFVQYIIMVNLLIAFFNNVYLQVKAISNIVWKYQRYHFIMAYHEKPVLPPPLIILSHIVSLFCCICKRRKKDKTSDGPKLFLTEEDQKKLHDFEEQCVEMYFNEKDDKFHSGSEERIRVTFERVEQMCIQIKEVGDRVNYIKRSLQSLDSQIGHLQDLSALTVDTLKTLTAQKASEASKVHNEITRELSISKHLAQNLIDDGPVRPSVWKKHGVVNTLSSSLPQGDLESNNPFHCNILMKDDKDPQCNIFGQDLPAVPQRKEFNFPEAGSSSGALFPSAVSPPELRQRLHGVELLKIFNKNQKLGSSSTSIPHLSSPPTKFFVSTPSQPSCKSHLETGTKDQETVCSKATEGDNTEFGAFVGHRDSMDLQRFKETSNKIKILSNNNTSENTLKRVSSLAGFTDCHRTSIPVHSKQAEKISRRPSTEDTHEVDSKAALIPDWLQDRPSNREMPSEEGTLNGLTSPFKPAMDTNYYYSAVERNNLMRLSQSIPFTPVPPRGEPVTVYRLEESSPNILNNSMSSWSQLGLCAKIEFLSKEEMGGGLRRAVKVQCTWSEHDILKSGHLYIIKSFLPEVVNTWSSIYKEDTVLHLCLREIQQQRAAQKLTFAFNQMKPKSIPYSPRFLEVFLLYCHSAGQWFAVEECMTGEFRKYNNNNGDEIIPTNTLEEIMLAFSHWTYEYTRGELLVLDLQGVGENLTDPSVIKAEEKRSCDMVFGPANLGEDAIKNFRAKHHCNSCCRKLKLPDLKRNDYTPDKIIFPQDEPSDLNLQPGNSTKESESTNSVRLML

Weri cells = assay: Cell proliferation assay, Weri retinoblastoma cells; assay type: cell-based
Protocol: as §2, §3, §1

[4] = Table X, the lower the number, the more potent in protecting against cell death
[5] = Table X, the lower the number, the more potent
[6] = Table Y, commercially available compounds

| SMILES | TRPM7 current (TRPM7 ion channel) | Normalized ratio of PI uptake (5 μM) (TRPM7 [1]; [4]) | Normalized ratio of PI uptake (10 μM) (TRPM7 [1]; [5]) | IC50 (TRPM7 [1]; Table X) | further results |
| --- | --- | --- | --- | --- | --- |
| O=C(NC1CCCc2ccccc21)c1sc2ccccc2c1Cl (stereo not drawn) [Compound 97] | 5 μM (Those that provide >10% inhibition of TRPM7 channel activity in the HEK293 cell system were labeled with the concentration tested (generally 5 uM)) | 0 | 0.084 | 1.24 µM |  |
| Cc1cccc2sc(C3=NCCc4c(F)cccc43)c(Cl)c12 [Compound 117] | 5 μM (Those that provide >10% inhibition of TRPM7 channel activity in the HEK293 cell system were labeled with the concentration tested (generally 5 uM)) | 0.02 | 0.07 | 1.67 µM |  |
| COc1cc2c(cc1OC)C(c1sc3cc(OC)c(OC)cc3c1Cl)=NCC2 [Compound 120] | 5 μM (Those that provide >10% inhibition of TRPM7 channel activity in the HEK293 cell system were labeled with the concentration tested (generally 5 uM)) | 0.079 | 0.066 | 2.55 µM |  |
| COc1cccc2c1CCNC2c1sc2ccccc2c1Cl (stereo not drawn) [Compound 121] | 5 μM (Those that provide >10% inhibition of TRPM7 channel activity in the HEK293 cell system were labeled with the concentration tested (generally 5 uM)) | 0.053 | 0.036 | 1.4 µM |  |
| Fc1cccc2c1CCNC2c1sc2ccccc2c1Cl (stereo not drawn) [Compound 123] | 5 μM (Those that provide >10% inhibition of TRPM7 channel activity in the HEK293 cell system were labeled with the concentration tested (generally 5 uM)) | 0.356 | 0.128 | 4.18 µM |  |
| Cc1c(Cc2ccc(Cl)c(Cl)c2)c(=O)oc2cc(O)cc(O)c12 [Compound 131] | 5 μM (Those that provide >10% inhibition of TRPM7 channel activity in the HEK293 cell system were labeled with the concentration tested (generally 5 uM)) | 0.29 | 0.03 | 3.42 µM |  |
| Cc1ccc2c(c1)CCCN2C(=O)c1sc2ccccc2c1Cl [Compound M5] |  |  |  |  | survival after anoxia [2]: effective in increasing survival after anoxia in neurons, hepatocytes, cardiomyoctes, and retina; inhibition of proliferation of cancer cell lines (cancer cell lines): effective in inhibiting proliferation of various cancer cell lines |
| COc1cc2c(cc1OC)C(c1sc3ccccc3c1Cl)=NCC2 [Compound M6] |  |  |  |  | survival after anoxia [2]: effective in increasing survival after anoxia in neurons and cardiomyocytes; inhibition of proliferation of cancer cell lines (cancer cell lines): effective in inhibiting proliferation of various cancer cell lines |
| [Mg+2] [Mg^2+, magnesium] |  |  |  |  | IC50 (TRPM7 [3]): ~600 µM |
| COc1ccccc1C(C)N(C)C(=O)c1cc2ccccc2s1 (stereo not drawn) [T6681713 #6, reference compound] |  |  |  |  | Normalized ratio of PI uptake (5 μM) (TRPM7 [1]; [6]): 0.328; Normalized ratio of PI uptake (10 μM) (TRPM7 [1]; [6]): 0.059; IC50 (TRPM7 [1]; [6]): 5.48 µM; inhibition at 5 µM (Weri cells): 9%; inhibition at 10 µM (Weri cells): 33% |
| COc1ccc2cc(C(=O)N(C)Cc3ccccc3N3CCCC3)[nH]c2c1 [T6899266 #9, reference compound] |  |  |  |  | Normalized ratio of PI uptake (5 μM) (TRPM7 [1]; [6]): 0.029; Normalized ratio of PI uptake (10 μM) (TRPM7 [1]; [6]): 0; IC50 (TRPM7 [1]; [6]): 2.32 µM; inhibition at 5 µM (Weri cells): 18%; inhibition at 10 µM (Weri cells): 42% |
